Data as given in publication PMC6210068 (ACS Omega, 2018).

Key:
[1] = target: DOR (Homo sapiens, UniProt P41143); experiment: Radioligand binding at DOR; conditions: 10 μM
[2] = target: rat kidney TSPO (Rattus norvegicus, UniProt P16257); experiment: Radioligand binding at TSPO; conditions: for Ki: TSPO, rat TSPO, [3H]PK11195
[3] = target: hDAT (Homo sapiens, UniProt Q01959); experiment: Radioligand binding at DAT; conditions: 10 μM; [3H]WIN35428; negative = enhanced radioligand binding
[4] = target: MOR (Homo sapiens, UniProt P35372); experiment: biochemical; assay type: binding; conditions: for MOR, inhibition of radioligand binding at 10 μM (class): Table 2
MOR, sequence (P35372 whole entry): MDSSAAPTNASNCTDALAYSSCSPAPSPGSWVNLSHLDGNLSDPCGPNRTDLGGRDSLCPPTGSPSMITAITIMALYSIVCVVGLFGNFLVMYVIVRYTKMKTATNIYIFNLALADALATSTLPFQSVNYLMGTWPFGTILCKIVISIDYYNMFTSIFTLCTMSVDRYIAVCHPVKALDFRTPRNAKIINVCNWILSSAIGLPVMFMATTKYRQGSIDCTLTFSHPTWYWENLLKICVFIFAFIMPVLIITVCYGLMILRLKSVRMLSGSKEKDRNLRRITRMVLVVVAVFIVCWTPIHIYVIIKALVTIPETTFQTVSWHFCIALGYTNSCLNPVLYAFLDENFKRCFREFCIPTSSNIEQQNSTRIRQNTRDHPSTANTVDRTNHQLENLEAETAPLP

[5] = target: KOR (Homo sapiens, UniProt P41145); experiment: biochemical; assay type: binding; conditions: KOR, Ki, [3H]U69593; mean ± SEM, N = 2–4
KOR, sequence (P41145 whole entry): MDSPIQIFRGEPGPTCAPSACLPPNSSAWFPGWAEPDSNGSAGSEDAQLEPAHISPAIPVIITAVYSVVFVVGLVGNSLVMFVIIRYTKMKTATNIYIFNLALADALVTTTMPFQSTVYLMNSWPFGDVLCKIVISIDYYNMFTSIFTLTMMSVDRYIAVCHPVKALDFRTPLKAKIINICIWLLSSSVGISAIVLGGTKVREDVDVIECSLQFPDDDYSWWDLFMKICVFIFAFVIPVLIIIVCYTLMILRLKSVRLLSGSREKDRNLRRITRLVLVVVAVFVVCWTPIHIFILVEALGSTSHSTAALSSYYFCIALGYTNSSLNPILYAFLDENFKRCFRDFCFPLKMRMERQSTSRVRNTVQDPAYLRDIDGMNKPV

[6] = target: T1, hA3AR (Homo sapiens, UniProt P0DMS8); experiment: A3AR binding
T1 sequence (P0DMS8 1-318): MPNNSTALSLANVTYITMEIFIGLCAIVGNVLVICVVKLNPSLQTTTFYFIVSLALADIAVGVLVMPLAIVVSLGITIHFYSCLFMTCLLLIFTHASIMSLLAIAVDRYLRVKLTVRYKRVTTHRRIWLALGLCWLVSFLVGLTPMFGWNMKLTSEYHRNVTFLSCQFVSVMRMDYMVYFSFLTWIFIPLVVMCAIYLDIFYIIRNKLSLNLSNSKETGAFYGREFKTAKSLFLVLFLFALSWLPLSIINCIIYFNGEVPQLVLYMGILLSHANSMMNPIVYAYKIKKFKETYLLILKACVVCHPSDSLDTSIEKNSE

hDAT, sequence (Q01959 whole entry): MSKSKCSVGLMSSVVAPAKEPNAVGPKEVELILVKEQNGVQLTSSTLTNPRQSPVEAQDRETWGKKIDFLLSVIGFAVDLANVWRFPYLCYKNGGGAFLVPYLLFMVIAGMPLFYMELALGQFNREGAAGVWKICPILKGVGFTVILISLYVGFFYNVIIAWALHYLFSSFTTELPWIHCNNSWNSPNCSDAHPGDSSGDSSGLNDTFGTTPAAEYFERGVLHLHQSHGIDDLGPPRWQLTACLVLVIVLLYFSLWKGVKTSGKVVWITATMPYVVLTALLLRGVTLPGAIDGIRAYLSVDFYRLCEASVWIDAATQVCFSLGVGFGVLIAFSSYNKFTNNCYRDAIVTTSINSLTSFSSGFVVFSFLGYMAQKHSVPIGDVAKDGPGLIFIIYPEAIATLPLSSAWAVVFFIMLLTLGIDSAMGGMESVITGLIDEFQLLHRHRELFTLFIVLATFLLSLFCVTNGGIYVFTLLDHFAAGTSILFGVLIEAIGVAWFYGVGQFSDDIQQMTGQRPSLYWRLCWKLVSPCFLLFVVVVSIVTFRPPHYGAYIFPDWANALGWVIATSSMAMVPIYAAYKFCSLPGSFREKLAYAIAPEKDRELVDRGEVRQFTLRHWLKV
DOR, sequence (P41143 whole entry): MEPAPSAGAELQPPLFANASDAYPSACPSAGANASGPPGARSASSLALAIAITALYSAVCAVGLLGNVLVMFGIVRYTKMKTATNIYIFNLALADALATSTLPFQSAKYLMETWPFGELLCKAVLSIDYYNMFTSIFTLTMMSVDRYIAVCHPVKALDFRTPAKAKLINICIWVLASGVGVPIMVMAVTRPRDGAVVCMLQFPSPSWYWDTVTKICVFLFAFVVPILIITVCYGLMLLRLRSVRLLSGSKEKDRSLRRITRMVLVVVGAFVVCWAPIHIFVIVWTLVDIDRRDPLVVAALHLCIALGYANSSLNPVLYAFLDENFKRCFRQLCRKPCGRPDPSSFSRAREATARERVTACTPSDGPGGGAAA
rat kidney TSPO, sequence (P16257 whole entry): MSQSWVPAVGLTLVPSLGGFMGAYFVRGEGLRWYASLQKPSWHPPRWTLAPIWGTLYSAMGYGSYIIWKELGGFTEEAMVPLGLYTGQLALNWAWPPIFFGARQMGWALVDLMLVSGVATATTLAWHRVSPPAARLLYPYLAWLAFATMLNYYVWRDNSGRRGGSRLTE

Row | Molecule | DOR, inhibition of radioligand binding at 10 μM (class) ([1]; Table 1) | TSPO, inhibition of radioligand binding at 10 μM (class) ([2]; Table 1) | DAT, inhibition, % of control at 10 μM [3] | Ki [2] [nM] | other results
1 | CNC(=O)[C@@]12C[C@@H]1[C@@H](n1cnc3c(NC)nc(C#Cc4ccc(Br)s4)nc31)[C@H](O)[C@@H]2O [compound 15] | ^e (30–50% inhibition of radioligand binding at 10 μM) | ^f (<30% inhibition of radioligand binding at 10 μM) | –235% |  | 
2 | CNC(=O)[C@@]12C[C@@H]1[C@@H](n1cnc3c(NC)nc(C#Cc4ccc(F)c(F)c4)nc31)[C@H](O)[C@@H]2O [compound 11] | ^e (30–50% inhibition of radioligand binding at 10 μM) | ^e (30–50% inhibition of radioligand binding at 10 μM) | –322% |  | 
3 | CNC(=O)[C@@]12C[C@@H]1[C@@H](n1cnc3c(NC)cc(C#Cc4ccc(Cl)s4)nc31)[C@H](O)[C@@H]2O [compound 16] | ^e (30–50% inhibition of radioligand binding at 10 μM) | ^e (30–50% inhibition of radioligand binding at 10 μM) | 1% |  | 
4 | Ala2-MePhe4-Glyol5-Enkephalin [compound 99, reference compound] |  |  |  |  | Kd ([4]; read-out: radioligand Kd, MOR): 1.73 ± 0.14 nM
5 | CNc1nc(C#Cc2ccccc2)nc2c1ncn2[C@H]1[C@H](O)[C@H](O)[C@@H]2C[C@@H]21 [compound 49] |  |  | –213% |  | DOR, inhibition of radioligand binding at 10 μM (class) ([1]; Table 4): ^g (<30% inhibition of radioligand binding at 10 μM); TSPO, inhibition of radioligand binding at 10 μM (class) ([2]; Table 4): ^f (30–50% inhibition of radioligand binding at 10 μM)
6 | CNC(=O)[C@@]12C[C@@H]1[C@@H](n1cnc3c(NC)nc(C#Cc4ccccc4)nc31)[C@H](O)[C@@H]2O [compound 12] | ^e (30–50% inhibition of radioligand binding at 10 μM) | ^e (30–50% inhibition of radioligand binding at 10 μM) | –211% |  | 
7 | O[C@@H]1[C@H](O)[C@@H]2C[C@@H]2[C@H]1n1cnc2c(NCC(c3ccccc3)c3ccccc3)nc(C#Cc3ccccc3)nc21 [compound 53] |  |  | 17% | 3570 ± 1820 | DOR, inhibition of radioligand binding at 10 μM (class) ([1]; Table 4): ^g (<30% inhibition of radioligand binding at 10 μM)
8 | CNc1nc(C#Cc2ccc(Cl)s2)nc2c1ncn2[C@H]1[C@H](O)[C@H](O)[C@]2(C(=O)OCCC(C)C)C[C@H]12 [compound 33] |  |  | –196 ± 58% | > 10000 | DOR, inhibition of radioligand binding at 10 μM (class) ([1]; Table 2): ^d (<30% inhibition of radioligand binding at 10 μM); Ki [5]: 1090 ± 320 nM; MOR, inhibition of radioligand binding at 10 μM (class) [4]: ^d (<30% inhibition of radioligand binding at 10 μM)
9 | CNC(=O)[C@@]12C[C@@H]1[C@@H](n1cnc3c(NCc4cccc(Cl)c4)nc(C#Cc4ccccc4Cl)nc31)[C@H](O)[C@@H]2O [compound 8] | f (<30% inhibition of radioligand binding at 10 μM) |  | 50% | ~300 | 
10 | CNC(=O)[C@@]12C[C@@H]1[C@@H](n1cnc3c(NC)nc(C#Cc4ccc(Cl)s4)nc31)[C@H](O)[C@@H]2O [compound 14] | ^e (30–50% inhibition of radioligand binding at 10 μM) |  |  | 684 ± 175 | 
11 | CNc1nc(C#Cc2ccc(Cl)s2)nc2c1ncn2[C@H]1[C@H](O)[C@H](O)[C@]2(C(=O)OCCc3ccccc3)C[C@H]12 [compound 36] |  |  | <20% |  | DOR, inhibition of radioligand binding at 10 μM (class) ([1]; Table 2): ^d (<30% inhibition of radioligand binding at 10 μM); Ki [5]: 3670 ± 1640 nM; MOR, inhibition of radioligand binding at 10 μM (class) [4]: ^d (<30% inhibition of radioligand binding at 10 μM); TSPO, inhibition of radioligand binding at 10 μM (class) ([2]; Table 2): ^d (<30% inhibition of radioligand binding at 10 μM); Ki [6]: 114 ± 64 nM
12 | CNC(=O)[C@@]12C[C@@H]1[C@@H](n1cnc3c(NCc4cccc(Cl)c4)nc(Cl)nc31)[C@H](O)[C@@H]2O [compound 5] | ^e (30–50% inhibition of radioligand binding at 10 μM) | ^f (<30% inhibition of radioligand binding at 10 μM) | 3% |  | 
